The results in this text go back to ChEMBL document CHEMBL3994622, “Design and synthesis of new RAF kinase-inhibiting antiproliferative quinoline derivatives. Part 2: Diarylurea derivatives” (Eur J Med Chem, 2017).

Common to all, as to format: functional
The subject of one experiment is 786-0. Put plainly: Growth inhibition of human 786-0 cells assessed as cell growth at 0.3 uM incubated for 48 hrs by sulforhodamine B assay relative to control. Particulars: 786-0, 48 h, read-out: Activity. (In general: In SRB staining, fixed cells bind dye roughly in proportion to their protein.)
A further experiment concerns SK-MEL-5. Description: Growth inhibition of human SK-MEL-5 cells assessed as cell growth at 3 uM incubated for 48 hrs by sulforhodamine B assay relative to control. The settings on record: SK-MEL-5, 48 h, read-out: Activity.
For experiment [1], the system named is HT-29. Put plainly: Growth inhibition of human HT-29 cells assessed as cell growth at 0.03 uM incubated for 48 hrs by sulforhodamine B assay relative to control. Particulars: HT-29, 48 h, read-out: Activity.
The subject of a further experiment is NCI-H322M. Description: Growth inhibition of human NCI-H322M cells assessed as cell growth at 3 uM incubated for 48 hrs by sulforhodamine B assay relative to control. The settings on record: read-out: Activity.
In the next experiment the test system is OVCAR-5. Description: Growth inhibition of human OVCAR5 cells assessed as cell growth at 30 uM incubated for 48 hrs by sulforhodamine B assay relative to control. The settings on record: OVCAR-5, 48 h, read-out: Activity.
The next experiment has as its system Hs-578T. Description: Growth inhibition of human Hs 578T cells assessed as cell growth at 0.003 uM incubated for 48 hrs by sulforhodamine B assay relative to control. The settings on record: read-out: Activity.
The subject of experiment [2] is SN12C. Put plainly: Growth inhibition of human SN12C cells assessed as cell growth at 30 uM incubated for 48 hrs by sulforhodamine B assay relative to control. The settings on record: read-out: Activity.
Experiment [3] deals with A498. Description: Growth inhibition of human A498 cells assessed as cell growth at 30 uM incubated for 48 hrs by sulforhodamine B assay relative to control. The settings on record: A498, 48 h, read-out: Activity.
In a further experiment the test system is RPMI-8226. Description: Growth inhibition of human RPMI8226 cells assessed as cell growth at 0.03 uM incubated for 48 hrs by sulforhodamine B assay relative to control. The settings on record: RPMI-8226, 48 h, read-out: Activity.
Another experiment deals with MDA-MB-435. Put plainly: Growth inhibition of human MDA-MB-435 cells assessed as cell growth at 30 uM incubated for 48 hrs by sulforhodamine B assay relative to control. Particulars: MDA-MB-435, 48 h, read-out: Activity.
For a further experiment, the system named is SNB-19. Description: Growth inhibition of human SNB19 cells assessed as cell growth at 0.03 uM incubated for 48 hrs by sulforhodamine B assay relative to control. The settings on record: SNB-19, 48 h, read-out: Activity.
The test system of experiment [4] is ACHN. Description: Growth inhibition of human ACHN cells assessed as cell growth at 0.03 uM incubated for 48 hrs by sulforhodamine B assay relative to control. The settings on record: read-out: Activity.
The next experiment concerns NCI-H23. Put plainly: Growth inhibition of human NCI-H23 cells assessed as cell growth at 0.3 uM incubated for 48 hrs by sulforhodamine B assay relative to control. The settings on record: NCI-H23, 48 h, read-out: Activity.
The subject of a further experiment is RXF 393. Put plainly: Growth inhibition of human RXF393 cells assessed as cell growth at 3 uM incubated for 48 hrs by sulforhodamine B assay relative to control. The settings on record: RXF 393, 48 h, read-out: Activity.
Experiment [5] relates to HT-29. Description: Growth inhibition of human HT-29 cells assessed as cell growth at 0.01 uM incubated for 48 hrs by sulforhodamine B assay relative to control. Particulars: HT-29, 48 h, read-out: Activity.
A further experiment has as its system NCI-H522. Put plainly: Growth inhibition of human NCI-H522 cells assessed as cell growth at 1 uM incubated for 48 hrs by sulforhodamine B assay relative to control. Particulars: NCI-H522, 48 h, read-out: Activity.
The test system of experiment [6] is SF-539. Put plainly: Growth inhibition of human SF539 cells assessed as cell growth at 100 uM incubated for 48 hrs by sulforhodamine B assay relative to control. The settings on record: SF-539, 48 h, read-out: Activity.
In a further experiment the test system is COLO 205. Put plainly: Growth inhibition of human COLO205 cells assessed as cell growth at 1 uM incubated for 48 hrs by sulforhodamine B assay relative to control. Particulars: COLO 205, 48 h, read-out: Activity.
In another experiment the test system is NCI-H460. Description: Growth inhibition of human NCI-H460 cells assessed as cell growth at 0.01 uM incubated for 48 hrs by sulforhodamine B assay relative to control. Particulars: NCI-H460, 48 h, read-out: Activity.
Experiment [7] relates to A498. Put plainly: Growth inhibition of human A498 cells assessed as cell growth at 0.01 uM incubated for 48 hrs by sulforhodamine B assay relative to control. Particulars: A498, 48 h, read-out: Activity.
The subject of the next experiment is OVCAR-8. Put plainly: Growth inhibition of human OVCAR8 cells assessed as cell growth at 1 uM incubated for 48 hrs by sulforhodamine B assay relative to control. The settings on record: OVCAR-8, 48 h, read-out: Activity.
Another experiment concerns A549. Put plainly: Growth inhibition of human A549/ATCC cells assessed as cell growth at 1 uM incubated for 48 hrs by sulforhodamine B assay relative to control. Particulars: A549, 48 h, read-out: Activity.
The subject of the next experiment is UO-31. Put plainly: Growth inhibition of human UO31 cells assessed as cell growth at 0.1 uM incubated for 48 hrs by sulforhodamine B assay relative to control. The settings on record: UO-31, 48 h, read-out: Activity.
For a further experiment, the system named is MOLT-4. Put plainly: Growth inhibition of human MOLT4 cells assessed as cell growth at 0.01 uM incubated for 48 hrs by sulforhodamine B assay relative to control. The settings on record: MOLT-4, 48 h, read-out: Activity.
The next experiment relates to HOP-62. Description: Growth inhibition of human HOP62 cells assessed as cell growth at 100 uM incubated for 48 hrs by sulforhodamine B assay relative to control. The settings on record: HOP-62, 48 h, read-out: Activity.
Experiment [8] has as its system SK-OV-3. Description: Growth inhibition of human SKOV3 cells assessed as cell growth at 0.01 uM incubated for 48 hrs by sulforhodamine B assay relative to control. The settings on record: SK-OV-3, 48 h, read-out: Activity.
The subject of experiment [9] is SF-539. Put plainly: Growth inhibition of human SF539 cells assessed as cell growth at 0.01 uM incubated for 48 hrs by sulforhodamine B assay relative to control. Particulars: SF-539, 48 h, read-out: Activity.
Another experiment has as its system SF-268. Description: Growth inhibition of human SF268 cells assessed as cell growth at 0.1 uM incubated for 48 hrs by sulforhodamine B assay relative to control. The settings on record: SF-268, 48 h, read-out: Activity.
In experiment [10] the test system is SN12C. Description: Growth inhibition of human SN12C cells assessed as cell growth at 10 uM incubated for 48 hrs by sulforhodamine B assay relative to control. The settings on record: read-out: Activity.
For experiment [11], the system named is ACHN. Put plainly: Growth inhibition of human ACHN cells assessed as cell growth at 0.1 uM incubated for 48 hrs by sulforhodamine B assay relative to control. The settings on record: read-out: Activity.
In the next experiment the test system is IGROV-1. Put plainly: Growth inhibition of human IGROV1 cells assessed as cell growth at 1 uM incubated for 48 hrs by sulforhodamine B assay relative to control. Particulars: IGROV-1, 48 h, read-out: Activity.
A further experiment has as its system SR. Description: Growth inhibition of human SR cells assessed as cell growth at 10 uM incubated for 48 hrs by sulforhodamine B assay relative to control. Particulars: read-out: Activity.
Experiment [12] relates to SK-OV-3. Put plainly: Growth inhibition of human SKOV3 cells assessed as cell growth at 0.1 uM incubated for 48 hrs by sulforhodamine B assay relative to control. Particulars: SK-OV-3, 48 h, read-out: Activity.
The subject of another experiment is UACC-62. Put plainly: Growth inhibition of human UACC62 cells assessed as cell growth at 0.01 uM incubated for 48 hrs by sulforhodamine B assay relative to control. Particulars: UACC-62, 48 h, read-out: Activity.

In the case of `Cc1nc2cc(O)c(O)cc2cc1Oc1ccc(NC(=O)Nc2ccc(Cl)c(Cl)c2)cc1`, the growth at 0.3 µM in the experiment on 786-0 is 95%; in the experiment on NCI-H23 it was 94%. Moreover, the growth at 3 µM in the experiment with SK-MEL-5 was 85%; in the experiment on NCI-H322M it was 105%; in the experiment on RXF 393, 86%. Further, the growth at 0.03 µM in the experiment with HT-29 [1] was 103%; in the experiment on RPMI-8226 it was 98%; in the experiment on SNB-19, 103%; in the experiment on ACHN [4], 107%. Further, the growth at 30 µM is -6% in the experiment with OVCAR-5, -3% with SN12C [2], 75% with A498 [3] and 7% with MDA-MB-435. Moreover, the growth at 0.003 µM in the experiment with Hs-578T came out at 93%.

`COc1cc2cc(Oc3ccc(NC(=O)Nc4ccc(Cl)c(C(F)(F)F)c4)cc3)c(C)nc2cc1OC`: the results for the growth at 0.3 µM in the experiment on 786-0 and in the experiment on NCI-H23 were 93% and 92%, respectively. In addition, the growth at 3 µM in the experiment on SK-MEL-5 is -20%; with NCI-H322M, 35%; in the experiment with RXF 393, 10%. In addition, the growth at 0.03 µM is 100% with HT-29 [1], 98% with RPMI-8226, 95% in the experiment with SNB-19 and 97% with ACHN [4]. Moreover, the growth at 30 µM is -81% in the experiment with OVCAR-5, -56% in the experiment on SN12C [2], -98% in the experiment with A498 [3] and -46% with MDA-MB-435. The growth at 0.003 µM in the experiment on Hs-578T was determined as 83%.

Turning to `COc1cc2cc(Oc3ccc(NC(=O)Nc4ccc(Cl)c(Cl)c4)cc3)c(C)nc2cc1OC`, the growth at 0.01 µM amounted to 108% in the experiment with HT-29 [5]; 105% in the experiment on NCI-H460; 82% with A498 [7]; 108% in the experiment on MOLT-4; 103% in the experiment on SK-OV-3 [8]; 101% in the experiment with SF-539 [9]. The growth at 0.01 µM with UACC-62 was determined as 94%. Besides, the growth at 1 µM in the experiment on NCI-H522 was 68%; in the experiment with COLO 205, 109%; in the experiment with OVCAR-8, 96%; in the experiment with A549, 66%; in the experiment with IGROV-1 it was 110%. The growth at 100 µM in the experiment with SF-539 [6] was -54%; in the experiment with HOP-62, -100%. The growth at 0.1 µM worked out at 101% with UO-31, 109% in the experiment with SF-268, 105% in the experiment on ACHN [11] and 107% in the experiment with SK-OV-3 [12]. In addition, the growth at 10 µM is 19% in the experiment with SN12C [10] and 1% in the experiment with SR.

On to `COc1cc2cc(Oc3ccc(NC(=O)Nc4cc(C(F)(F)F)cc(C(F)(F)F)c4)cc3)c(C)nc2cc1OC`, for which the growth at 0.01 µM in the experiment on HT-29 [5] stood at 97%; in the experiment on NCI-H460, 105%; in the experiment with A498 [7], 97%; in the experiment on MOLT-4 it was 104%; in the experiment on SK-OV-3 [8], 91%; in the experiment on SF-539 [9] it was 92%. The growth at 0.01 µM in the experiment on UACC-62 was determined as 90%. For the same compound, the growth at 1 µM with NCI-H522 turned out to be 63%; with COLO 205, 92%; in the experiment with OVCAR-8, 76%; with A549, 65%; in the experiment with IGROV-1, 31%. The figures for the growth at 100 µM in the experiment on SF-539 [6] and in the experiment with HOP-62 were -74% and -92%, respectively. In addition, the growth at 0.1 µM with UO-31 came to 73%; with SF-268, 92%; in the experiment with ACHN [11], 98%; with SK-OV-3 [12], 104%. Also, the growth at 10 µM is -75% with SN12C [10] and -20% in the experiment on SR.
